Measured values: patent US20250041307A1, “Uses of Bicyclic Compounds for the Treatment of Diseases” (Athira Pharma, Inc., priority 2021, published 2025)

How the values were obtained:
[1] = tested on: HGF/MET system; assay: Phospho-MET ELISA; type: cell-based; design: key: − indicates that the compound failed to significantly augment MET phosphorylation; + indicates maximum potency at or above 100 nM; ++ indicates maximum potency at or above 10 nM; +++ indicates maximum potency at or above 1 nM; ++++ indicates maximum potency at or above 0.1 nM; details: HEK293 cells; with 1 ng/mL recombinant HGF; 15 minutes; augmentation of MET phosphorylation (pMET ELISA)
Experimental: Compounds were screened for potency towards the HGF/MET system using phospho-MET (pMET) ELISA kits (Cell Signaling). pMET levels were detected in samples having low (1 ng/mL) and high (10 ng/mL) concentrations of HGF.
HEK293 cells were prepared by passage into 6-well multi-plates and grown at 37° C. at 5% CO2 in DMEM+10% FBS until approximately 90% confluent. Cells were then starved for at least 8 hours in serum-free growth media.
Exemplary compounds were prepared in DMEM+0.1% FBS, diluted and added to treatment media with 1 ng/mL recombinant HGF protein (R&D Systems). Cells were incubated in triplicate at 37° C. and 5% CO2 for 15 minutes. Samples were then treated with 180 μL ice-cold RIPA (radioimmunoprecipitation assay) buffer and cells were lysed on ice for 15 minutes. Lysates were cleared by centrifugation at 16,000-g for 15 minutes and the supernatant was retained. Samples were normalized using a BCA assay of lysates to determine protein concentrations across the samples.
Between 50 and 100 μg total protein lysate was loaded into ELISA wells in pMET Sandwich ELISA kit (Cell Signaling Catalog #7227C), ensuring equal protein load in each well. The ELISA was processed according to manufacturer's instructions. After color developed, absorbance was read on an optical plate reader at 450 nm.
Potency measurements were determined using peak efficacy by scaling test compound dose treatments along a scale of 1-10 between 1 ng/mL and 10 ng/mL HGF doses according to the following formula: […]
where y is the normalized data-point, x is the raw data point, A is the mean HGF at 1 ng/mL, and B is the mean HGF at 10 ng/mL.

[2] = tested on: MDCK cells; assay: Cell scattering behavior assay; type: cell-based; design: key: − indicates that the compound failed to significantly promote cell scattering behavior; + indicates maximum potency at or above 100 nM; ++ indicates maximum potency at or above 10 nM; +++ indicates maximum potency at or above 1 nM; ++++ indicates maximum potency at or above 0.1 nM; details: with 5 ng/mL HGF, 24 hours, normalized particle count compared to HGF treatment alone
Experimental: MDCK cells were grown under normal conditions and observed to spontaneously form tight colonies as they proliferate. MDCK cells respond to HGF treatment by moving away from each other (scattering), which is quantified to assess the amount of HGF/MET activation in the cell population. In this experiment, MDCK cells were plated in a 96-well format, treated with HGF and exemplary compounds, fluorescently stained, imaged in large fields, and scattering behavior was quantified. Quantification was determined by analyzing the number of continuous groups of cells compared to the total stained area imaged (normalized particle counts).
MDCK cells were plated at low density in black-walled imaging plates and allowed to attach overnight at 37° C. and 5% CO2 in DMEM+10% FBS. Cells were then starved to 2 hours in DMEM without FBS (“starve media”). Samples containing exemplary compounds were prepared in DMEM without FBS and included 5 ng/mL HGF protein (“treatment media”). A control curve was also prepared for each plate using HGF concentrations of 0, 5, 10, and 20 ng/mL. Starve media was replaced with treatment media and cells were incubated for 24 hours at 37° C. and 5% CO2.
After incubation, cells were fixed by replacing treatment media with cold ethanol and incubating for 20 minutes at 4° C. Cells were then rehydrated by washing with PBS and then with stain solution (fluorescent wheat germ agglutinin; WGA488 at 20 μg/mL in PBS). Cells were incubated with stain solution 30 minutes at room temperature after which stain solution was replaced with fresh PBS.
Fields of cells were imaged using an iCyte high content imager in the green wavelength. Images were converted to binary and analyzed for particle size and particle count. For the purpose of analysis, an individual cell touching no other cells or separated colonies of cells were identified as particles, and particle counts were normalized by the total signal area to account for differences in cell number. […] Compound potency was assessed by statistical increase in normalized particle count compared to HGF treatment alone.

[3] = Parallel artificial membrane permeability assay (PAMPA); type: in vitro ADME; details: PBS, room temperature for 5 hours, 200 uM in donor well
Experimental: Bioavailable drugs must permeate the cellular membranes of the lining of the digestive tract. To estimate the penetrability of exemplary compounds, the in vitro parallel artificial membrane permeability assay (PAMPA) was utilized.
Test compounds must have a standard curve in the final read plate to determine partitioned concentration of each drug. A 6-point standard curve was prepared for each compound from 0 to 200 μM in phosphate-buffered saline (PBS).
Test compound solution (300 μL in PBS) was added to the donor (bottom) well of the PAMPA plate in 5 replicates and PBS vehicle (200 μL) was added to the acceptor (top) wells of appropriate wells to match the loading of the donor plate. The bottom and top of the PAMPA plates were then sandwiched together. The PAMPA plates were then incubated at room temperature for 5 hours. After incubation, 150 μL of donor solution was added to a UV compatible plate containing the corresponding standard curve. 150 μL of acceptor well solution was added adjacent to the corresponding standard curve and donor well samples for that compound. The plate was then read using a UV plate reader.
Permeability and membrane retention were then calculated based on the following formulas:
where: • A=filter area (0.3 cm^2); • VD=donor well volume (0.3 mL); • VA=acceptor well volume (0.2 mL); • t=incubation time (seconds); • CA(t)=compound concentration in acceptor well at time t; • CD(t)=compound concentration in donor well at time t; and
where: • CD(t), VD, CA(t), and VA are as defined for equation 1, and • C0=initial concentration in donor well (200 uM).

[4] = Turbidimetric solubility assay; type: physicochemical; details: PBS (diluted from 10 mM DMSO stock), aqueous buffer, kinetic from dmso stock, 37° C. for 2 hours, dilution series 3 to 300 μM
Experimental: Aqueous solubility is a critical drug property that helps to predict bioavailability. Generally, compounds with aqueous solubility <100 μg/ml are poor drugs.
To assess a compound's solubility by turbidity, test compounds were first dissolved in organic solvent (DMSO) at a concentration of 10 mM. This compound solution was then diluted in aqueous solvent (PBS) in a dilution series from 3 to 300 μM in a 96-well assay plate. Solutions were incubated at 37° C. for 2 hours.
In wells with test compounds over their solubility limit, the compound will precipitate, effectively blocking the passage of light and thus increasing the absorbance signal of UV light at a wavelength of 620 nm. Compounds were considered insoluble at a tested concentration if turbidity raises the absorbance more than 10% above control reads.

[5] = In vivo tissue distribution; design: species or system Sprague-dawley rats; details: rat, 10 minutes post administration
Experimental: The rate of distribution to target tissues is an important feature of therapeutic molecules. Tissue distribution of exemplary compounds was performed in mixed-sex Sprague-dawley rats. Test compounds were delivered via tail vein injection (IV) and tissues were collected at Tmax (10 minutes post administration). Animals were deeply anesthetized with isoflurane and whole blood was collected from the right atrium and processed by centrifugation to produce plasma. Animals were then fully perfused with PBS administered to the left ventricle to prevent blood contamination of tissues.
Tissues were collected and homogenized, and compound content in the target tissue was quantified by LC-MS/MS. Tissue distribution rates were determined by dividing the tissue concentration of compound by the plasma concentration and multiplying by 100.

[6] = In vitro stability in human plasma; type: in vitro ADME; details: 5 μM, 37° C.
Experimental: (§1) Bioavailability can be estimated by compound stability when exposed to conditions in the body. As an initial assessment of stability properties in a variety of conditions present in animals, exemplary compounds were tested for stability in a battery of simulated body compartments. Compounds were tested for stability in the following solutions: simulated gastric fluid (SGF: 34.2 mM NaCl, pH 1.2), simulated gastric fluid with the digestive enzyme pepsin (SGF+Enzyme: SGF with 3.2 mg/ml pepsin), simulated intestinal fluid with the mixture of enzymes in porcine pancreatin (SIF+Enzyme: 28.7 mM NaH2PO4, 105.7 mM NaCl, pH 6.8, 10 mg/ml pancreatin), rat plasma, and human plasma.
(§2) Test compounds were incubated at a final concentration of 5 μM in the above solutions at 37° C. with samples removed at the following time points: 0, 1, 2, and 4 hours. Reactions were stopped and prepared for quantification by addition of excess quench solution containing an internal standard (acetonitrile, 200 ng/mL bucetin). Test compound and internal standard in each sample was quantified by LC-MS/MS, and after internal normalization to bucetin, test compound concentration was expressed as a percentage of concentration at the 0-hour time point. Stability in the relevant test solution was then determined by the percent remaining at the 4-hour time point.

[7] = In vitro stability in simulated gastric and intestinal fluids; type: in vitro ADME; details: 37° C.
Experimental: as §1, §2

[8] = In vitro stability in rat plasma; type: in vitro ADME; details: 5 μM, 37° C.
Experimental: as §1, §2

[9] = tested on: hepatocyte (HepG2) cell cultures; assay: Cytotoxicity assay (LDH release); type: cell-based; details: HepG2 cells, 48 hours, 0.1 to 100 μM
Experimental: This experiment was designed to obtain a preliminary assessment of cytotoxicity.
HepG2 cells were plated in 96-well cell culture plates and allowed to attach overnight at 37° C., 5% CO2 in EMEM+10% FBS. Treatments were made in complete media (EMEM+10% FBS) and included a dilution series of test compounds from 0.1 to 100 μM. Known cytotoxin cerivastatin was used as a positive assay control and prepared at a final concentration of 0.5 μM.
Growth media was replaced with treatment media (EMEM+10% FBS containing test compound dissolved in DMSO) and cells were incubated with test compounds for 48 hours. At the end of the incubation period, supernatant media from each well was transferred to a new plate and LDH assay working solution was added. LDH assay solution undergoes a colorimetric reaction in proportion to the amount of lactate dehydrogenase (an intracellular protein that was only found in the media in the presence of lysed cells) in the media. Color reaction was quantified by measurement of absorbance at a wavelength of 490 nm.
The signal range of the assay was determined by no manipulation in a negative control treatment and full lysis of all cells in a lysis control sample. Compounds that increase the level of cytotoxicity more than 20% above negative control samples were considered cytotoxic in this assay.

| Structure (SMILES) | Papp at 5 h, 200 uM [3] | solubility at 2 h [4] | Potency [1] | Potency [2] | Cytotoxicity [9] | other results |
| --- | --- | --- | --- | --- | --- | --- |
| CCC(C)CN1CC2N(Cc3ccc(O)cc3)CCC(=O)N2[C@@H](C)C1=O (some centres unmarked) [Compound 3a] | < 2 ×10⁻⁶ cm/s | > 300 µM | − | − |  |  |
| CCC(C)CN1CC2N(Cc3ccc(OC(F)F)cc3)CCC(=O)N2C(CC(C)C)C1=O (centres unmarked) [Compound 53, 1-(4-(difluoromethoxy)benzyl)-6-isobutyl-8-(2-methylbutyl)hexahydro-4H-pyrazino[1,2-a]pyrimidine-4,7(6H)-dione] | < 2 ×10⁻⁶ cm/s |  | ++ (++ indicates maximum potency at or above 10 nM) | +++ (+++ indicates maximum potency at or above 1 nM) | +++ (+++ indicates non-toxic at 10 μM) |  |
| CC1C(=O)N(CCC2CCCC2)CC2N(Cc3ccc(C(F)(F)F)c(Cl)c3)CCC(=O)N12 (centres unmarked) [Compound 54] | < 2 ×10⁻⁶ cm/s |  | − | − | +++ (+++ indicates non-toxic at 10 μM) |  |

Further lines, with some results ahead:

| Papp at 5 h, 200 uM [3] | solubility at 2 h [4] | Structure (SMILES) | Potency [1] | Potency [2] | Cytotoxicity [9] | other results |
| --- | --- | --- | --- | --- | --- | --- |
| > 2 ×10⁻⁶ cm/s |  | CC1C(=O)N(CC2CCC2)CC2N(C(=O)c3ccc(OC(F)F)cc3)CCC(=O)N12 (centres unmarked) [Compound 14] | ++++ (++++ indicates maximum potency at or above 0.1 nM) |  | ++++ (++++ indicates non-toxic at 100 μM) | Tissue Distribution (% Plasma exposure at 10 min post IV dose) Brain ([5]; brain): ++ (++ indicates distribution between 5 and 39%); Tissue Distribution (% Plasma exposure at 10 min post IV dose) Cerebellum ([5]; cerebellum): ++ (++ indicates distribution between 5 and 39%); Tissue Distribution (% Plasma exposure at 10 min post IV dose) Cortex ([5]; cortex): ++ (++ indicates distribution between 5 and 39%); Tissue Distribution (% Plasma exposure at 10 min post IV dose) Hippocampus ([5]; hippocampus): ++ (++ indicates distribution between 5 and 39%); Tissue Distribution (% Plasma exposure at 10 min post IV dose) Sciatic Nerve ([5]; sciatic nerve): ++ (++ indicates distribution between 5 and 39%); Human Plasma, compound remaining after 4 hours [6]: +++ (+++ indicates 80-99% compound remaining after 4 hours); SGF, compound remaining after 4 hours ([7]; simulated gastric fluid pH 1.2, 5 μM): ++ (++ indicates 40-79% compound remaining after 4 hours); SGF + Enz, compound remaining after 4 hours ([7]; simulated gastric fluid with 3.2 mg/ml pepsin, 5 μM): ++ (++ indicates 40-79% compound remaining after 4 hours); SIF, compound remaining after 4 hours ([7]; simulated intestinal fluid pH 6.8 with 10 mg/ml pancreatin, 5 μM): +++ (+++ indicates 80-99% compound remaining after 4 hours); Rat Plasma, compound remaining after 4 hours [8]: +++ (+++ indicates 80-99% compound remaining after 4 hours) |
|  | > 300 µM | CC1C(=O)N(CCCC(F)(F)F)CC2N(Cc3ccc(OC(F)F)cc3)CCC(=O)N12 (centres unmarked) [Compound 37] | − |  |  |  |
|  | > 100 µM | CC1C(=O)N(CCC(F)(F)F)CC2N(Cc3ccc(OC(F)F)cc3)CCC(=O)N12 (centres unmarked) [Compound 52] | − |  |  |  |
